Laboratory results taken from patent publication US20250326726A1, “FERROPTOSIS INHIBITORS-PHENOXAZINE ACETAMIDES” (SIRONAX (BEIJING) CO., LTD., priority 2023, published 2025).

System: HT-1080 cells
Experiment: RSL3-induced HT-1080 cells ferroptosis assay (10% FBS)
Type: cell-based

## 5-(dimethylamino)-N-((8-(trifluoromethyl)-10H-phenoxazin-3-yl)methyl)pentanamide [Compound 57]
  Bioactivity (RSL3-induced HT-1080 cells ferroptosis assay (10% FBS)): 1 to 100 nM
